The NIST ThermoML archive (doi:10.1021/acs.jced.8b00157)
Where “and” joins values, the source holds several entries; their conditions need not be identical. Equal entries are not always repeated. Numbers after ± are expanded uncertainties.

Assay: an = ratio of the nth substance listed
Conditions: 100 kPa, Liquid, Buoyancy - hydrostatic balance, a2 = 1.7

[F][Al]([F])[F] [aluminum fluoride] + [F-].[K+]
Conditions | mass density
1188.2 K | 1843 ± 10 kg/m3
1188.4 K | 1842 ± 11 kg/m3
1188.6 K | 1842 ± 10 kg/m3
1189.2 K | 1841 ± 10 kg/m3
1189.7 K | 1841 ± 11 kg/m3
1189.8 K | 1841 ± 10 kg/m3
1190.6 K | 1840 ± 10 kg/m3
1190.7 K | 1840 ± 10 kg/m3
1190.9 K | 1840 ± 10 kg/m3
1191.6 K | 1839 ± 10 kg/m3 and 1840 ± 10 kg/m3
1191.7 K | 1839 ± 10 kg/m3
1191.8 K | 1840 ± 10 kg/m3
1192.2 K | 1839 ± 10 kg/m3
1192.4 K | 1838 ± 10 kg/m3
1192.7 K | 1838 ± 10 kg/m3
1192.8 K | 1838 ± 10 kg/m3
1193 K | 1839 ± 10 kg/m3
1193.8 K | 1837 ± 10 kg/m3
1194 K | 1838 ± 10 kg/m3
1194.2 K | 1837 ± 10 kg/m3
1194.6 K | 1837 ± 10 kg/m3
1194.9 K | 1837 ± 11 kg/m3
1195.3 K | 1836 ± 11 kg/m3
1195.6 K | 1835 ± 10 kg/m3 and 1837 ± 10 kg/m3
1195.9 K | 1835 ± 10 kg/m3
1196.1 K | 1836 ± 10 kg/m3
1196.3 K | 1835 ± 10 kg/m3
1196.5 K | 1835 ± 10 kg/m3
1197.1 K | 1835 ± 10 kg/m3
1197.5 K | 1834 ± 10 kg/m3
1197.7 K | 1834 ± 11 kg/m3
1197.8 K | 1834 ± 11 kg/m3 and 1835 ± 11 kg/m3
1198.1 K | 1834 ± 11 kg/m3
1198.4 K | 1833 ± 11 kg/m3
1198.9 K | 1833 ± 11 kg/m3
1199.6 K | 1832 ± 11 kg/m3
1199.9 K | 1833 ± 10 kg/m3
1200.2 K | 1832 ± 11 kg/m3
1200.5 K | 1831 ± 10 kg/m3
1200.7 K | 1832 ± 11 kg/m3
1200.8 K | 1831 ± 10 kg/m3 and 1832 ± 10 kg/m3
1201.4 K | 1830 ± 11 kg/m3
1201.7 K | 1830 ± 11 kg/m3 and 1831 ± 11 kg/m3
1202.1 K | 1831 ± 11 kg/m3
1202.2 K | 1832 ± 11 kg/m3
1202.4 K | 1830 ± 11 kg/m3 and 1831 ± 11 kg/m3
1202.9 K | 1829 ± 11 kg/m3 and 1831 ± 11 kg/m3
1203 K | 1829 ± 11 kg/m3
1203.6 K | 1829 ± 11 kg/m3
1203.8 K | 1828 ± 11 kg/m3
1203.9 K | 1828 ± 11 kg/m3
1204 K | 1828 ± 11 kg/m3 and 1829 ± 11 kg/m3
1204.3 K | 1828 ± 11 kg/m3
1204.6 K | 1827 ± 10 kg/m3
1204.7 K | 1827 ± 10 kg/m3
1205 K | 1826 ± 11 kg/m3
1205.6 K | 1826 ± 11 kg/m3
1205.8 K | 1826 ± 11 kg/m3
1206 K | 1827 ± 11 kg/m3
1206.3 K | 1826 ± 11 kg/m3
1206.6 K | 1826 ± 11 kg/m3
1206.7 K | 1825 ± 11 kg/m3
1207 K | 1826 ± 11 kg/m3
1207.1 K | 1825 ± 11 kg/m3
1207.3 K | 1824 ± 10 kg/m3
1207.5 K | 1825 ± 10 kg/m3
1207.6 K | 1824 ± 10 kg/m3
1207.8 K | 1824 ± 11 kg/m3
1207.9 K | 1825 ± 11 kg/m3
1208.2 K | 1824 ± 12 kg/m3
1208.4 K | 1823 ± 11 kg/m3
1208.5 K | 1823 ± 11 kg/m3
1208.7 K | 1822 ± 10 kg/m3
1209.3 K | 1823 ± 10 kg/m3
1209.7 K | 1823 ± 11 kg/m3
1209.8 K | 1823 ± 11 kg/m3
1210.1 K | 1821 ± 11 kg/m3
1210.2 K | 1822 ± 11 kg/m3
1210.5 K | 1821 ± 11 kg/m3
1211 K | 1822 ± 11 kg/m3
1211.2 K | 1822 ± 11 kg/m3
1211.3 K | 1822 ± 11 kg/m3
1211.4 K | 1821 ± 11 kg/m3
1211.7 K | 1821 ± 11 kg/m3 and 1820 ± 11 kg/m3
1211.8 K | 1822 ± 11 kg/m3
1211.9 K | 1821 ± 11 kg/m3 and 1819 ± 11 kg/m3
1212.3 K | 1820 ± 11 kg/m3 and 1819 ± 11 kg/m3
1212.6 K | 1819 ± 11 kg/m3
1212.9 K | 1820 ± 11 kg/m3
1213.1 K | 1820 ± 11 kg/m3
1213.3 K | 1820 ± 11 kg/m3
1213.5 K | 1819 ± 11 kg/m3
1213.7 K | 1820 ± 11 kg/m3
1213.8 K | 1819 ± 11 kg/m3
1214 K | 1819 ± 12 kg/m3 and 1818 ± 12 kg/m3
1214.2 K | 1817 ± 11 kg/m3
1214.6 K | 1819 ± 11 kg/m3
1214.7 K | 1819 ± 11 kg/m3
1215.1 K | 1819 ± 11 kg/m3
1215.2 K | 1819 ± 11 kg/m3 and 1816 ± 11 kg/m3
1215.5 K | 1818 ± 11 kg/m3
1215.6 K | 1816 ± 11 kg/m3
1216 K | 1815 ± 12 kg/m3
1216.7 K | 1814 ± 11 kg/m3
1217 K | 1814 ± 11 kg/m3
1217.5 K | 1813 ± 12 kg/m3
1218.2 K | 1813 ± 11 kg/m3
1218.7 K | 1812 ± 11 kg/m3
1219.2 K | 1811 ± 13 kg/m3 and 1812 ± 12 kg/m3
1220.3 K | 1810 ± 11 kg/m3
1220.6 K | 1809 ± 13 kg/m3
1220.9 K | 1810 ± 13 kg/m3
1221.8 K | 1809 ± 11 kg/m3
1222.2 K | 1808 ± 11 kg/m3
1222.3 K | 1808 ± 11 kg/m3
1222.7 K | 1807 ± 12 kg/m3
1223.3 K | 1807 ± 11 kg/m3
1223.7 K | 1805 ± 12 kg/m3
1223.8 K | 1806 ± 11 kg/m3
